Consider one molecule from US20080138461A1, “Lactobacillus buchneri strain LN1297 and its use to improve aerobic stability of silage” (Pioneer Hi-Bred International, Inc., priority 2006, published 2008).

This data set can be described thus: Aerobic stability of grass silage (method of Honig), PVC silos. Further details: species or system ryegrass. On the procedure:
Second cut ryegrass was harvested at PLNC. The grass was determined to have an approximate dry matter of 35%.
Inoculation: Individual strains were supplied as fresh grown overnight culture. Cultures were adjusted to a standard concentration of 5.0×10^7 CFU/mL and applied using a syringe at a rate of 2.2 mL/kg of forage. The application rate for all strains was 1.1×10^5 CFU/g forage. Propionic acid (88%) was applied at a rate of 4.4 mL/kg fresh forage.
PVC Silos: PVC silos were filled at a packing density of 0.288 kg DM/silo (100 kg DM/m^3); approximately 0.82-0.95 kg/silo. Silos were air infused for 24 hours on days 28 and 42, and opened after 50-60 days of ensiling.
Aerobic Stability: The method of Honig (Proc. Of the Eurobac. Conf., P. Lingvall and S. Lindgren (ed.) (12-16 Aug. 1986) Swed. Univ. of Agric. Sci. Grass and Forage Report No. 3-1990. Pp. 76-81. Uppsala, Sweden) was used for measuring aerobic stability (see Table 1). ROT is defined as the time, in hours, for the silage to heat 1.7° C. after exposure to air. Cumm_DD is the integral value of the area between the time ROT is attained and the end of the experiment. Aerobic dry matter loss (% dry matter) was determined relating the increase in temperature and the time to energy losses occurring in the silage.

The mark [1] stands for this setting: average across replicate studies A, B, C.

`CCC(=O)O` [Propionic Acid, Propionic acid]: the “Aerobic deterioration versus control grass silages” value was “significantly less aerobic deterioration”. Also, under setting [1], the “Aerobic Dry Matter Loss, Avg.” value came to 0.43 % dry matter and the “ROT (time for the silage to heat 1.7° C. after exposure to air), Avg.” value is 127 h. In addition, where the note is “replicate A”, the “Aerobic Dry Matter Loss, replicate study A” value was determined as 0.29 % dry matter and the “ROT (time for the silage to heat 1.7° C. after exposure to air), replicate study A” value was found to be 137 h. Besides, where the note is “replicate B”, the “Aerobic Dry Matter Loss, replicate study B” value is 0 % dry matter and the “ROT (time for the silage to heat 1.7° C. after exposure to air), replicate study B” value was 160 h. Besides, under “replicate C”, the “Aerobic Dry Matter Loss, replicate study C” value stood at 1.01 % dry matter and the “ROT (time for the silage to heat 1.7° C. after exposure to air), replicate study C” value was 86 h. In addition, where the note is “versus control”, the “Improvement of aerobic stability over the control” value is 96 h.
